“Also recorded” adds a separate entry of the source.
What was measured:
SF-539 = test: NCI-60 antiproliferative screening, SF-539; format: cell-based; conditions: Homo sapiens, SF-539 (CNS Cancer), read-out: Inhibition% values at 10 μM concentration
Text: (§1) Then, 8f was submitted to NCI for antiproliferative evaluation against 59 different tumor cell lines. The cancer types of the NCI-60 program include leukemia, non-small cell lung cancer (NSCLC), colon cancer, CNS cancer, melanoma, ovary cancer, renal cancer, prostate cancer, and breast cancer.

IGROV1 = test: NCI-60 antiproliferative screening, IGROV1; format: cell-based; conditions: Homo sapiens, IGROV-1, IGROV1 (Ovarian Cancer), read-out: Inhibition% values at 10 μM concentration
Text: as §1

BT-549 = test: NCI-60 antiproliferative screening, BT-549; format: cell-based; conditions: Homo sapiens, BT-549 (Breast Cancer), read-out: Inhibition% values at 10 μM concentration
Text: as §1

DU-145 = test: NCI-60 antiproliferative screening, DU-145; format: cell-based; conditions: Homo sapiens, DU-145 (Prostate Cancer), read-out: Inhibition% values at 10 μM concentration
Text: as §1

HCC-2998 = test: NCI-60 antiproliferative screening, HCC-2998; format: cell-based; conditions: Homo sapiens, HCC-2998 (Colon Cancer), read-out: Inhibition% values at 10 μM concentration
Text: as §1

HDAC5 = biological target: T1, HDAC5 (Homo sapiens, UniProt Q9UQL6); test: In vitro HDAC enzyme assay (Reaction Biology Corporation), HDAC5; format: biochemical; conditions: Table 2 isozyme screen; duplicate, SD < 15%
T1 construct: purchased Reaction Biology Corporation
T1 sequence (Q9UQL6 whole entry): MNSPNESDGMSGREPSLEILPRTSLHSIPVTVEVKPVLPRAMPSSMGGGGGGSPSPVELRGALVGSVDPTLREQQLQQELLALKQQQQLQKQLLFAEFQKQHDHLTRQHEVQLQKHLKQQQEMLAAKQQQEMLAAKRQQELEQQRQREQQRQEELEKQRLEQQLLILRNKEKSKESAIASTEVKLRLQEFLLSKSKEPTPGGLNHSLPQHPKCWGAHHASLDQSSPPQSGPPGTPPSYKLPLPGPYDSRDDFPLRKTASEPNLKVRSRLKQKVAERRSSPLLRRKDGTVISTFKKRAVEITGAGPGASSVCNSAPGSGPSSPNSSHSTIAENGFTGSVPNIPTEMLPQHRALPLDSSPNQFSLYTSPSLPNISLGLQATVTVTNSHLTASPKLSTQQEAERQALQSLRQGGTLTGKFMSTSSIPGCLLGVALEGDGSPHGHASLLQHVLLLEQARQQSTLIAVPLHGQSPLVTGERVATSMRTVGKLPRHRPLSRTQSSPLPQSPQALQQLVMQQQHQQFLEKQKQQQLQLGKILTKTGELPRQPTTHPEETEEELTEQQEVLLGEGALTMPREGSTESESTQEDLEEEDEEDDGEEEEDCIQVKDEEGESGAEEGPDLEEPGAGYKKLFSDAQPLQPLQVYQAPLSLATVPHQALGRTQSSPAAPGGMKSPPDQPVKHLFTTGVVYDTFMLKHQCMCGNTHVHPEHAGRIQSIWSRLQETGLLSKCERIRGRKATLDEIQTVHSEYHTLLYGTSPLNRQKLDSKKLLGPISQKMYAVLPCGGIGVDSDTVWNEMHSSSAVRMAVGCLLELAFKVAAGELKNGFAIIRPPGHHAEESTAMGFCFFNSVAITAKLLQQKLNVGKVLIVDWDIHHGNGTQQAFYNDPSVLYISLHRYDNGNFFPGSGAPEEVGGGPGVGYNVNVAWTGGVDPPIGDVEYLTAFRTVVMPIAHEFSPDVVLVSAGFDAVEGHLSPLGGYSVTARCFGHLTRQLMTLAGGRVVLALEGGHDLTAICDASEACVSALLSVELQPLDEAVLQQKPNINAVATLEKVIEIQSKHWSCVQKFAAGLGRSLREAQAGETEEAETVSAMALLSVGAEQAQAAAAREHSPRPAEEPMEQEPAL

HL60 = test: Antiproliferative assay (Alamar blue, 72 h), HL60; format: cell-based; conditions: Homo sapiens, HL-60, HL60 cells, three independent experiments, SD < 10%, read-out: Antiproliferative effect IC50, HL60
HDAC2 = biological target: T2, HDAC2 (Homo sapiens, UniProt Q92769); test: In vitro HDAC enzyme assay (Reaction Biology Corporation), HDAC2; format: biochemical; conditions: Table 2 isozyme screen; duplicate, SD < 15%
T2 construct: purchased Reaction Biology Corporation
T2 sequence (Q92769 whole entry): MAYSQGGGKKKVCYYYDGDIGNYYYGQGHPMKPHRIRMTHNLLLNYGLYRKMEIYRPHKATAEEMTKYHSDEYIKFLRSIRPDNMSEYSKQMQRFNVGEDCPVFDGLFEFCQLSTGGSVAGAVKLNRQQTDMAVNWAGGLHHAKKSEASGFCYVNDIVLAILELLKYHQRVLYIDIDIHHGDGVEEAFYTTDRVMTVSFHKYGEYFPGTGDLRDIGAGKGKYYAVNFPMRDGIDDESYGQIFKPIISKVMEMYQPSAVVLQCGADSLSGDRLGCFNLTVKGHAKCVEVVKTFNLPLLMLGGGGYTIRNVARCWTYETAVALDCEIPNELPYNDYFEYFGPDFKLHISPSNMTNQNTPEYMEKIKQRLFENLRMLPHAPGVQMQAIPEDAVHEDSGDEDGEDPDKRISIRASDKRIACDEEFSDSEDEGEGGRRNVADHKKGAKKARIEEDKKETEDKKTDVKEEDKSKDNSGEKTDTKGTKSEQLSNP

MDA-MB-231/ATCC = test: NCI-60 antiproliferative screening, MDA-MB-231/ATCC; format: cell-based; conditions: Homo sapiens, MDA-MB-231/ATCC (Breast Cancer), read-out: Inhibition% values at 10 μM concentration
Text: as §1

NCI-H522 = test: NCI-60 antiproliferative screening, NCI-H522; format: cell-based; conditions: Homo sapiens, NCI-H522 (Non-Small Cell Lung Cancer), read-out: Inhibition% values at 10 μM concentration
Text: as §1

M14 = test: NCI-60 antiproliferative screening, M14; format: cell-based; conditions: Homo sapiens, M14 (Melanoma), read-out: Inhibition% values at 10 μM concentration
Text: as §1

SW-620 = test: NCI-60 antiproliferative screening, SW-620; format: cell-based; conditions: Homo sapiens, SW-620 (Colon Cancer), read-out: Inhibition% values at 10 μM concentration
Text: as §1

acetylated α-tubulin = test: Western blot, acetylated α-tubulin in RPMI-8226 cells; format: cell-based, human; conditions: 24 h, 1, 5, and 10 μM
Experimental: (§2) RPMI-8226 cells (1 × 10^6) were seeded overnight and incubated with compound 8f for 24 h on indicated concentrations. Cell extract was prepared by lysing cultured cells with a mammalian protein extraction reagent supplemented with EDTA-free protease inhibitor for 15 min. SDS-PAGE and immunoblot analysis were conducted as described. Antibodies for Ac-H3 (abcom, AB32129) and Ac-ɑ-tubulin (Cell Signaling, 2144) were used.

HT29 = test: NCI-60 antiproliferative screening, HT29; format: cell-based; conditions: Homo sapiens, HT-29, HT29 (Colon Cancer), read-out: Inhibition% values at 10 μM concentration
Text: as §1

SK-MEL-5 = test: NCI-60 antiproliferative screening, SK-MEL-5; format: cell-based; conditions: Homo sapiens, SK-MEL-5 (Melanoma), read-out: Inhibition% values at 10 μM concentration
Text: as §1

[1] = system: acetylated histone 3 (H3); test: Western blot, acetylated histone 3 in RPMI-8226 cells; format: cell-based, human; conditions: 24 h, 1, 5, and 10 μM
Experimental: as §2

KM12 = test: NCI-60 antiproliferative screening, KM12; format: cell-based; conditions: Homo sapiens, KM12 (Colon Cancer), read-out: Inhibition% values at 10 μM concentration
Text: as §1

UACC-257 = test: NCI-60 antiproliferative screening, UACC-257; format: cell-based; conditions: Homo sapiens, read-out: Inhibition% values at 10 μM concentration
Text: as §1

NCI-H460 = test: NCI-60 antiproliferative screening, NCI-H460; format: cell-based; conditions: Homo sapiens, NCI-H460 (Non-Small Cell Lung Cancer), read-out: Inhibition% values at 10 μM concentration
Text: as §1

EKVX = test: NCI-60 antiproliferative screening, EKVX; format: cell-based; conditions: Homo sapiens, EKVX (Non-Small Cell Lung Cancer), read-out: Inhibition% values at 10 μM concentration
Text: as §1

RPMI-8226 = test: Antiproliferative assay (Alamar blue, 72 h), RPMI-8226; format: cell-based, human; conditions: Homo sapiens, RPMI-8226 cells, three independent experiments, SD < 10%, read-out: Antiproliferative effect IC50, RPMI-8226
Experimental: The cells were cultured in IMDM (Gibco) medium with 20% FBS (Lonsera), 100 U/mL penicillin, and 100 µg/mL streptomycin (Solarbio). All cells were maintained at 37 °C in a humidified atmosphere of 5% CO2 in air. Briefly, 100 µL cell suspension or completed medium was plated into a 96-well plate. Compounds were added and incubated for 72 h. Then, 22 µL Alamar blue solution (1 mM) was pipetted into each well of a 96-well plate, and the plate was incubated for an additional 5~6 h. The absorbance (OD) was read at 530/590 nm. Data were normalized to vehicle groups (DMSO) and represented as the means of three independent measurements with standard errors of <20%. The IC50 values were calculated using Prism 5.0.

OVCAR-8 = test: NCI-60 antiproliferative screening, OVCAR-8; format: cell-based; conditions: Homo sapiens, OVCAR-8 (Ovarian Cancer), read-out: Inhibition% values at 10 μM concentration
Text: as §1

MOLT-4 = test: NCI-60 antiproliferative screening, MOLT-4; format: cell-based; conditions: Homo sapiens, MOLT-4 (Leukemia), read-out: Inhibition% values at 10 μM concentration
Text: as §1

COc1cccc(-c2nc3c(c(-c4cccc(OC)c4)n2)CCN(C(=O)CCCCCCC(=O)NO)C3)c1 [Compound 8f, 8-(2,4-Bis(3-methoxyphenyl)-5,8-dihydropyrido [3,4-d]pyrimidin-7(6H)-yl)-N-hydroxy-8-oxooctanamide]
inhibition at 10 µM (SF-539): 99%
inhibition at 10 µM (IGROV1): 100%
inhibition at 10 µM (BT-549): 81.9%
inhibition at 10 µM (DU-145): 89.8%
inhibition at 10 µM (HCC-2998): 100%
HDAC5 IC50 (HDAC5): poor activity
IC50 (HDAC5): > 10000 nM
IC50 (HL60): 3200 nM
IC50 (HDAC2): 390 nM
inhibition at 10 µM (MDA-MB-231/ATCC): 100%
inhibition at 10 µM (NCI-H522): 69.1%
inhibition at 10 µM (M14): 90.5%
inhibition at 10 µM (SW-620): 100%
levels of acetylated α-tubulin (acetylated α-tubulin): increase the levels of acetylated α-tubulin in a dose-dependent manner; also recorded: elevated the levels of acetylated α-tubulin in a dose-dependent manner
inhibition at 10 µM (HT29): 95.3%
inhibition at 10 µM (SK-MEL-5): 100%
levels of acetylated histone 3 (H3) [1]: only modest changes
inhibition at 10 µM (KM12): 88.4%
inhibition at 10 µM (UACC-257): 98.7%
inhibition at 10 µM (NCI-H460): 95.5%
inhibition at 10 µM (EKVX): 84.4%
IC50 (RPMI-8226): 2800 nM
melting point: 117 to 118 °C
inhibition at 10 µM (OVCAR-8): 93.6%
inhibition at 10 µM (MOLT-4): 87.7%

Reference: paper PMC10648541, “Design, Synthesis, and Antiproliferative Activity of Selective Histone Deacetylases 6 Inhibitors Containing a Tetrahydropyridopyrimidine Scaffold” (Molecules, 2023)
